We go through 9 compounds from PubChem BioAssay (NCI).

The structures appear in SMILES notation.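 Cultured in 96-well plates, cells were exposed to test compound for 48 hours across five concentrations. GI50 = concentration required for 50% inhibition of growth. TGI marks complete inhibition of growth.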 A value given as a limit tells only on which side of the number the result lay.

Assay in all cases: inhibition of tumour cell growth, NCI panel, 48 h
Assay [1] relates to MDA-MB-231 breast.
For assay [2], the system named is BT-549 breast.
Assay [3] relates to ACHN renal.
Assay [4] deals with OVCAR-5 ovarian.
For assay [5], the system named is NCI-H226 lung.
In assay [6] the test system is SNB-75 CNS.
Assay [7] relates to NCI-H23 lung.
In assay [8] the test system is SN12C renal.
The subject of assay [9] is A549 NSCLC.
Assay [10] deals with A498 renal.
For assay [11], the system named is MCF7 breast.
Assay [12] concerns NCI/ADR-RES ovarian.
Assay [13] concerns HS 578T breast.
Assay [14] deals with UACC-257 melanoma.
Assay [15] has as its system HL-60(TB) leukemia.
Assay [16] has as its system KM12 colon.

For the compound `NC(=O)NO`, the TGI in [1] is greater than 1410 µM; in assay [2], greater than 2500 µM; in assay [3], 2060 µM; in assay [4], 1990 µM; in assay [5] it was 2120 µM; in assay [6], 2310 µM. Also, the TGI in assay [7] was 2050 µM; in [8], 2390 µM; in [9], 2340 µM; in assay [10] it was 1990 µM; in assay [11] it was greater than 2460 µM; in assay [12], 2400 µM. For the same compound, the TGI in [13] is greater than 1220 µM; in assay [14], greater than 2500 µM; in [15] it was 182 µM; in assay [16], 2500 µM. Besides, in [15], the GI50 is 21 µM.

Take `CSc1nc(-c2ccc(C)cc2)c(C#N)c(=O)[nH]1`: the TGI in assay [1], in [2], in [3], in assay [4], in assay [5] and in assay [6] was greater than 100 µM in each case. The TGI in [7], in assay [8], in [9], in assay [10], in assay [11] and in [12] was greater than 100 µM in each case. In addition, the TGI in [13], in assay [14], in assay [15] and in assay [16] was greater than 100 µM each time.

For the compound `CCCCNc1c(CN)cnc2cc(Cl)ccc12`, the TGI was 30 µM in assay [1]; 31.8 µM in assay [2]; 58.7 µM in assay [3]; 35.5 µM in assay [4]; 32.6 µM in assay [5]; 42.3 µM in assay [6]. Besides, the TGI in [7] was found to be 39.2 µM; in assay [8], 37.9 µM; in assay [9] it was 41.5 µM; in [10] it was 28.7 µM; in assay [11] it was 27.6 µM; in assay [12], 32 µM. In addition, the TGI in [13] was found to be 37.2 µM; in [14] it was 26.5 µM; in assay [15] it was 3.92 µM; in [16] it was 36.7 µM.

As for `CC1=C(O)C(=O)C[C@]2(C)[C@H]3CC=C4[C@@H]5CC(C)(C)CC[C@@H]5C(=O)[C@H](O)[C@@]4(C)[C@]3(C)CC[C@@H]12`, the TGI in assay [1], in assay [2], in assay [3], in assay [4], in assay [5] and in assay [6] was greater than 50 µM throughout. Besides, the TGI in assay [7], in [8], in [9], in assay [10], in [11] and in assay [12] was greater than 50 µM in each case. Also, the TGI in assay [13], in assay [14], in assay [15] and in assay [16] was greater than 50 µM each time.

As to `CC(=O)O[C@@H]1[C@H]2[C@@H](OC(=O)c3ccccc3)[C@@H](C)C[C@]2(O)[C@H](OC(C)=O)[C@@]2(C)[C@@H]3CC(C)(C)C(=O)[C@]3(OC(C)=O)C[C@@]12C`, the TGI in assay [1], in [2], in [3], in assay [4], in [5] and in assay [6] was greater than 25 µM throughout. Further, the TGI in assay [7], in assay [8], in assay [10], in [11], in assay [12] and in [13] was greater than 25 µM throughout. In addition, the TGI in assay [14], in assay [15] and in assay [16] was greater than 25 µM throughout.

Turning to `CC(C)C1OC2(C)OC(=N)C1(C#N)C(C#N)(C#N)C2C` (configuration not stated), the TGI in assay [1] is 31.8 µM; in [2], greater than 100 µM; in assay [3] it was greater than 100 µM; in assay [4], 71.1 µM; in assay [5] it was greater than 100 µM; in assay [6], greater than 100 µM. Besides, the TGI is greater than 100 µM in assay [7]; 26.8 µM in assay [8]; greater than 100 µM in [9]; greater than 100 µM in assay [10]; 41.7 µM in [11]; greater than 100 µM in [12]. Further, the TGI in assay [13] is 69.4 µM; in assay [14] it was greater than 100 µM; in [15] it was 37 µM; in [16], greater than 100 µM.

Regarding `O=C1c2cc3c(cc2CC12Cc1cc4c(cc1C2=O)CCC4)CCC3`, the TGI in assay [1], in [2], in [3], in assay [4], in [5] and in [6] was greater than 100 µM in each case. The TGI in [7], in assay [8], in [9], in [10], in assay [11] and in [12] was greater than 100 µM each time. In addition, the TGI in [13], in assay [14], in [15] and in assay [16] was greater than 100 µM in each case.

Consider `OCC1OC(Oc2cc(O)cc(/C=C/c3ccc(O)cc3)c2)C(O)C(O)C1O` (configuration not stated), for which the TGI in assay [1], in [2], in assay [3], in [4], in assay [5] and in assay [6] was greater than 100 µM each time. The TGI in assay [8], in assay [9], in assay [10], in assay [11], in assay [12] and in assay [13] was greater than 100 µM in each case. Further, the TGI in [14], in assay [15] and in [16] was greater than 100 µM throughout.

Regarding `CCOC(=O)c1cc(C2CCN(CC(C)CC)C2=S)c(-c2cc(C)no2)[nH]1` (configuration not stated), the TGI in assay [1], in assay [2], in assay [4], in [5], in assay [6] and in [7] was greater than 100 µM in each case. The TGI in assay [8], in [9], in [10], in assay [11], in assay [12] and in assay [13] was greater than 100 µM each time. The TGI in assay [14], in assay [15] and in [16] was greater than 100 µM each time.
